Source: ChEMBL document CHEMBL1153990, “Exploring the PI3K alpha and gamma binding sites with 2,6-disubstituted isonicotinic derivatives” (Bioorg Med Chem Lett, 2009)
pIC50: −log10 of the molar value.

Columns and labels:
[1] = biological target: Phosphatidylinositol 4,5-bisphosphate 3-kinase catalytic subunit alpha isoform (Homo sapiens, UniProt P42336); test: Inhibition of PI3Kalpha by luminescent kinase glo assay; settings: for inhibition: concentration not given here
[2] = biological target: Phosphatidylinositol 4,5-bisphosphate 3-kinase catalytic subunit gamma isoform (Homo sapiens, UniProt P48736); test: Inhibition of PI3Kgamma by luminescent kinase glo assay
[3] = Selectivity ratio of IC50 for PI3Kgamma to IC50 for PI3Kalpha

Sequence of Phosphatidylinositol 4,5-bisphosphate 3-kinase catalytic subunit alpha isoform (P42336 whole entry, canonical isoform): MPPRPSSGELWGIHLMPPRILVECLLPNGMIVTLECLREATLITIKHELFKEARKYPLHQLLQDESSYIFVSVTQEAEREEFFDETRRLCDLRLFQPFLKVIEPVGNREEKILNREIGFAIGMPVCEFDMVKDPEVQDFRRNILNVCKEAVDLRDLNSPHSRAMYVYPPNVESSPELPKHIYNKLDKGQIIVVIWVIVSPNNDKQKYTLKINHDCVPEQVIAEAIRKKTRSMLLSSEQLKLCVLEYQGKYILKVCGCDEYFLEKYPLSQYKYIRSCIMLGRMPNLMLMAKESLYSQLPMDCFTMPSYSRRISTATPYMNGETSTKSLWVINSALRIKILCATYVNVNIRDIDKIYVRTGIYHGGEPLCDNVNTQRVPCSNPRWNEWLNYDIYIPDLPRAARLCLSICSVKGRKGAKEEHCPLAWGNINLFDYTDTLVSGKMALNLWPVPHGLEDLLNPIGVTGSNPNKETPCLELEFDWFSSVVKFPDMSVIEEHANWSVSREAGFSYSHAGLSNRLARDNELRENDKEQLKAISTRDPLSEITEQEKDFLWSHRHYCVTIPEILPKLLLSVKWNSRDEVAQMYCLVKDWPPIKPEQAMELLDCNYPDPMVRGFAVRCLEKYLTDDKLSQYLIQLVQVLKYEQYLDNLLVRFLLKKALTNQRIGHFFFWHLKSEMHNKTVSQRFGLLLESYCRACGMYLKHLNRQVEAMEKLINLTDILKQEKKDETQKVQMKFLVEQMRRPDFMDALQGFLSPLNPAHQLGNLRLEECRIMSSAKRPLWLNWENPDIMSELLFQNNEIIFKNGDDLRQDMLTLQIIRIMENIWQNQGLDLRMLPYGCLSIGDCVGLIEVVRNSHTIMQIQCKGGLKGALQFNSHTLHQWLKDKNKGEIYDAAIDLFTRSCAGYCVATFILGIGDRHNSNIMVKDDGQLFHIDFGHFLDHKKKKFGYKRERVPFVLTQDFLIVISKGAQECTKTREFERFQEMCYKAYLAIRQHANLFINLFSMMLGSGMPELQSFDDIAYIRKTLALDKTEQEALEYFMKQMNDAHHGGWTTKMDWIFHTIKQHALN
Sequence of Phosphatidylinositol 4,5-bisphosphate 3-kinase catalytic subunit gamma isoform (P48736 whole entry, canonical isoform): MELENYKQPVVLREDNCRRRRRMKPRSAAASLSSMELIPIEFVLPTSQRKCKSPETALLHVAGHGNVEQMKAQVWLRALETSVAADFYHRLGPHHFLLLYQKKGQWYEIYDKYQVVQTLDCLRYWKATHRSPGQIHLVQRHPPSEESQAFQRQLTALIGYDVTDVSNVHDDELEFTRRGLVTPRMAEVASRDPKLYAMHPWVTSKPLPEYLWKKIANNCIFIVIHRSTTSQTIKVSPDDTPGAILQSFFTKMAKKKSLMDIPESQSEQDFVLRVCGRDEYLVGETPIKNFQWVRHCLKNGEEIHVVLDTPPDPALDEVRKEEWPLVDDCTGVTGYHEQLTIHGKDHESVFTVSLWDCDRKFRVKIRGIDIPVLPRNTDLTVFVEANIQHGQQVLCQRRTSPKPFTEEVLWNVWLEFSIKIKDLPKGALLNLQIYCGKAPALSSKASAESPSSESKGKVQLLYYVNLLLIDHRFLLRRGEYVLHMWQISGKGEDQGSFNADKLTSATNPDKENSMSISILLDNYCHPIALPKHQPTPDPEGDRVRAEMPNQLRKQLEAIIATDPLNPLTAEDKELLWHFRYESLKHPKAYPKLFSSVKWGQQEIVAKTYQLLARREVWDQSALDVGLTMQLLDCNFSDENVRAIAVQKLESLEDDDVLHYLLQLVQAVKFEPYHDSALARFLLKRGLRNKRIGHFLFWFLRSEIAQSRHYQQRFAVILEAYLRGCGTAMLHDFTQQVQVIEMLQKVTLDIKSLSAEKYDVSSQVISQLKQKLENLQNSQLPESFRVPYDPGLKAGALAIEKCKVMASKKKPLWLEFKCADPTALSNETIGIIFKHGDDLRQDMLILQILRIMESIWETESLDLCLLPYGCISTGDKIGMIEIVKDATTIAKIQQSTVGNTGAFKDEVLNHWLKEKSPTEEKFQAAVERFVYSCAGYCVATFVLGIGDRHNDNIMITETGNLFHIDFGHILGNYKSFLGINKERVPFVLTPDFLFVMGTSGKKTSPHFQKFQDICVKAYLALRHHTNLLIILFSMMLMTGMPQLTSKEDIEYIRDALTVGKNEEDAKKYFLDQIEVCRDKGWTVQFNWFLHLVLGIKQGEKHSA

Row | pIC50 [1] | pIC50 [2] | inhibition [1] [%] | Ratio IC50 [3] | Structure (SMILES)
1 | 4.29 | < 4.00 | – | – | CCOC(=O)c1ccnc(N2CCOCC2)c1
2 | 4.00 | 4.00 | – | – | Cc1cc(F)ccc1NCc1cc(C(=O)O)cc(-c2ccc(O)cc2)n1
3 | < 4.00 | < 4.00 | – | – | Cc1cc(F)ccc1NCc1cc(C(=O)O)cc(-c2ccccc2O)n1
4 | – | < 4.00 | < 10 | – | Cc1cc(F)ccc1NCc1cc(C(=O)O)cc(N2CCCC2)n1
5 | < 4.00 | < 4.00 | – | – | Cc1cc(F)ccc1NCc1cc(C(=O)O)cc(Cl)n1
6 | < 4.00 | < 4.00 | – | – | Cc1cc(F)ccc1NCc1cc(C(=O)N2CCC(O)C2)cc(N2CCC(O)C2)n1 (stereo not drawn)
7 | < 4.00 | < 4.00 | – | – | Cc1cc(F)ccc1NCc1cc(C(=O)O)cc(N(CCO)CCO)n1
8 | < 4.00 | < 4.00 | – | – | Cc1cc(F)ccc1NCc1cc(C(=O)O)cc(N2CCC(O)C2)n1 (stereo not drawn)
9 | 5.15 | 4.64 | – | 6 | Cc1cc(F)ccc1OCc1cc(C(=O)O)cc(N2CCOCC2)n1
10 | 4.00 | 4.38 | – | – | Cc1cc(F)ccc1NCc1cc(C(=O)O)cc(-c2cccc(O)c2)n1
11 | 4.70 | ≤ 4.00 | – | – | Cc1cc(F)ccc1NCc1cc(CO)cc(N2CCOCC2)n1
12 | 4.00 | 4.00 | – | – | Cc1cc(F)ccc1NCc1cc(C=O)cc(N2CCOCC2)n1
13 | 4.54 | 4.38 | – | – | Cc1cc(F)ccc1NCc1cc(C(=O)O)cc(-c2ccncc2)n1
14 | 5.30 | 4.47 | – | – | Cc1cc(F)ccc1NCc1cc(C(=O)O)cc(N2CCOCC2)n1
15 | 4.44 | < 4.00 | – | – | O=C(O)c1ccnc(N2CCOCC2)c1
16 | < 5.00 | > 5.00 | – | – | Cc1cc(F)ccc1OCc1cc(C(N)=O)cc(N2CCOCC2)n1
17 | < 4.00 | < 4.00 | – | – | Cc1cc(F)ccc1NCc1cc(C(=O)O)cc(N2CCNCC2)n1
18 | – | < 4.00 | < 10 | – | Cc1cc(F)ccc1NCc1cc(C(=O)O)cc(N2CCCCC2)n1
19 | < 4.00 | < 4.00 | – | – | Cc1cc(F)ccc1NCc1cc(C(=O)O)cc(-c2cccnc2)n1
20 | ≤ 4.30 | ≤ 4.30 | – | – | Cc1cc(F)ccc1OCc1cc(C(=O)NCCO)cc(N2CCOCC2)n1
21 | < 4.00 | < 4.00 | – | – | Cc1cc(F)ccc1NCc1cc(C(=O)O)cc(N(C)CCO)n1
22 | 4.00 | < 4.00 | – | – | Cc1cc(F)ccc1NCc1cc(C(=O)O)cc(NCCO)n1
23 | – | > 5.00 | < 10 | – | CCOC(=O)c1cc(COc2ccc(F)cc2C)nc(N2CCOCC2)c1
24 | < 4.00 | < 4.00 | – | – | Cc1cc(F)ccc1NCc1cc(C(=O)NCCO)cc(NCCO)n1
25 | ≤ 5.00 | 5.00 | – | – | Cc1cc(F)ccc1OCc1cc(C(=O)NO)cc(N2CCOCC2)n1
26 | – | > 5.00 | < 10 | – | CCOC(=O)c1cc(CNc2ccc(F)cc2C)nc(N2CCOCC2)c1
